Source: the METLIN SMRT retention time set (Domingo-Almenara et al. 2019)

Test: gradient 5% acetonitrile 3 min, to 50% in 2 min, to 85% in 15 min, held 3 min, 100 µL/min
Conditions: column: Zorbax Extend-C18 2.1 x 50 mm; eluents: water / acetonitrile, 0.1% formic acid
Outline: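 Data were gathered over 3 months by HPLC coupled to a quadrupole time-of-flight mass spectrometer, operated in positive and negative ionization mode. Mixtures of ~100 pure standards ran on a Zorbax Extend-C18 column (2.1 × 50 mm, 1.8 μm) at 100 μL/min, with water and acetonitrile each containing 0.1% formic acid and dead and dwell volumes of 40 μL and 900 μL. Retention time was read from adduct peaks picked by computer and checked manually.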

RP-LC retention time [s]	SMILES
725	CC(C)c1ccc(C2C(C(=O)c3ccccc3)C(=O)C(=O)N2CCCN2CCOCC2)cc1 (stereo not drawn)
880	O=C(NCC1CN(c2ccc3c(c2)OCO3)C(=O)O1)c1ccccc1C(F)(F)F (stereo not drawn)
955	CCn1c(=O)sc2cc(S(=O)(=O)N3CCC(C(=O)Nc4ccc(F)c(F)c4)CC3)ccc21
668	CS(=O)(=O)c1ccc(Nc2ncccc2S(N)(=O)=O)cc1
595	Cc1cnc(C(=O)NCC2Cn3cccc3C(=O)N2C)cn1 (stereo not drawn)
856	CCC(C)NC(=O)CCn1c(=O)c2ccccc2n2c(=O)n(Cc3ccccc3)nc12 (stereo not drawn)
1020	CCc1ccc(C(C)NS(=O)(=O)c2cc3c(s2)CCN(C(=O)C2CCC2)C3)cc1 (stereo not drawn)
1000	CC1(C)CC(=O)c2cn(-c3ccc(F)cc3)c(=O)c(C(=O)Nc3ccc4c(c3)OCCO4)c2C1
928	CCOc1ccccc1NC(=O)C1CCN(c2cnc(N3CCCCC3)nc2)CC1
870	O=C(c1cc(Cl)ccc1Cl)N1CCN(c2cc(-c3cccs3)[nH]n2)CC1
579	Cn1nc(C(=O)N2CCCCC2)c2c1CCN(C(=O)CCC(=O)NCCCN1CCCCC1)C2
586	O=C(NCCN1CCOCC1)C1=C2CCCN2c2ccc(F)cc2S1(=O)=O
981	CCC(C)NC(=O)N1CCN(c2nc3ccccc3n(Cc3ccccc3)c2=O)CC1 (stereo not drawn)
854	CC(C)NC(=O)Nc1cccc(Cl)c1
1120	Cn1nccc1-c1cccc(-c2noc(C3CCN(S(=O)(=O)c4ccc(Cl)cc4)CC3)n2)c1
666	c1ccc(-c2nnc(-c3cccnc3)o2)cc1
834	Cc1cccc(OCC(=O)Nc2cccn3nc(C)nc23)c1
661	CS(=O)(=O)Nc1ccc2nc(S(C)(=O)=O)sc2c1
713	CCOC(=O)C1=C(CN2CCN(Cc3ccccc3)CC2)NC(=O)NC1c1ccc(OC(C)C)cc1 (stereo not drawn)
1060	COc1ccc(-n2c(=O)c3sccc3n(Cc3nc(-c4ccc(OC(C)C)cc4)no3)c2=O)cc1
916	COc1ccc(N2C=C(C#N)S(=O)(=O)c3ccc(Cl)cc32)cc1OC
750	Cc1cc(NC(=O)CSc2ccc(NC(=O)c3cccc(F)c3)nn2)no1

RP-LC retention time [s]	SMILES
754	CCN(CC)CCCN(c1ccccc1)C1Cc2ccccc2C1
1010	Cc1ccc(C)c(N2CCN(c3ccnc(SCC(=O)Nc4c(C)cccc4C)n3)CC2)c1
1130	COc1ccc(N2CCN(S(=O)(=O)c3cc(-c4csc(C)n4)ccc3C)CC2)cc1
1210	CC(C)(C)OC(=O)COc1cc(O)c2c(=O)cc(-c3ccccc3)oc2c1
881	O=C(Cc1csc2nc(-c3ccccc3)cn12)Nc1ccc(Cl)cc1F
630	COc1ccc(C(=O)NCC(=O)Nc2nc3ccccc3[nH]2)c(C)c1
830	Cc1cccc(NC(=O)C2CCCN(c3nc4ccccc4nc3C(F)(F)F)C2)c1C (stereo not drawn)
830	CCc1ccc(CN2C(=O)c3ccccc3C2C(=O)NCC2CCCO2)cc1 (stereo not drawn)
1300	COc1ccc(OCc2nc(-c3ccc(-c4csc(C5CC5)n4)cc3)no2)cc1
639	CCN(CC)C(=O)c1c(C)sc2ccn(C)c(=O)c12
1150	COC(=O)c1ccc2c(=O)n(-c3ccc(C)c(F)c3)c(N3CCSC3)nc2c1
700	Cc1c(C2CCN(C(=O)NCCc3ccccc3)CC2)noc1N
1190	CCN(CC)S(=O)(=O)c1cc(-c2nnc(-c3ccc(C)cc3)o2)ccc1Cl
822	Cc1ccc(N2CC(C(=O)NCC(=O)N3CCCc4ccccc43)CC2=O)cc1C (stereo not drawn)
556	CCc1nc(N)n(CC(=O)NCc2ccc3c(c2)OCO3)c(=O)c1C
788	CCOc1ccccc1-c1nc(-c2ccc3ncn(CC)c3c2)no1
579	CCOC(=O)[C@@H](N)Cc1ccc(O)c(O)c1
750	COCCCNC(=O)C1c2ccccc2C(=O)N1Cc1cccc(Br)c1 (stereo not drawn)
1100	C=CCn1c(=O)c2ccccc2n(Cc2nc(-c3cccc(OCC)c3)no2)c1=O
932	Cc1[nH]nc(-c2ccc(S(=O)(=O)N3CCC(C)CC3)o2)c1C
618	Cc1cccc2nnc(N3CCN(C(=O)c4cccs4)CC3)n12
578	CC(=O)N1CCc2cc(N3CC(C(=O)N4CCN(C5CCCCC5)CC4)CC3=O)ccc21 (stereo not drawn)

RP-LC retention time [s]	SMILES
586	Cn1cc(CN2CCC(C(=O)NCCCN3CCCCC3)CC2)c2cc(Cl)ccc21
752	COCCc1nncn1C1CCN(S(=O)(=O)c2cccc(C(F)(F)F)c2)CC1
821	Cc1ccc(Cl)cc1NC(=O)C1CC(=O)N(c2ccc3c(c2)CCN3C(=O)C2CC2)C1 (stereo not drawn)
1140	O=C(Nc1ccccc1)C1CCCN(S(=O)(=O)c2cc(-c3noc(C4CCC4)n3)cs2)C1 (stereo not drawn)
1150	Cc1cccc(-n2c(=O)c3sccc3n(Cc3nc(-c4ccc(C)c(C)c4)no3)c2=O)c1
652	COC[C@@H]1CN(S(=O)(=O)c2cccnc2)C[C@H]1c1ccncc1
858	O=C(Nc1ccc2c(c1)OCO2)N(Cc1ccsc1)CC(F)(F)F
1120	Cc1cc(C)cc(-c2nnc(Cc3nc(-c4ccc(F)cc4)no3)o2)c1
607	Cc1ccc(N2CCC(NC(=O)c3ccc4nc[nH]c4c3)C2=O)cc1 (stereo not drawn)
896	CCn1c(C)c(C(=O)CN(CC2CCCO2)C(=O)c2cccc(F)c2)c(C)c1C(=O)OC (stereo not drawn)
822	COc1ccc(NC(=O)Cn2c(=O)c3cc(-c4ccco4)nn3c3ncccc32)cc1Cl
763	Cc1csc(NC(=O)Cc2cc(-c3cccs3)on2)n1
984	CCn1c(=O)c(N2CCC(C(=O)NCCc3c[nH]c4ccc(C)cc34)CC2)nc2cccnc21
910	COc1cc(C(=O)N2CCCC2c2nc(-c3ccccc3)no2)cc(OC)c1OC (stereo not drawn)
762	CCn1cc(CCNC(=O)Nc2ccc(C)c(C)c2)c2cccnc21
615	COc1ccc(CN(Cc2cc(=O)n3ccccc3n2)CC(C)C)cc1OC
996	CCOC(=O)c1cccc(N2C=C(C#N)S(=O)(=O)c3ccc(Cl)cc32)c1
967	CCOc1ccccc1NC(=O)Cn1c(N2CCOCC2)nc(COC)cc1=O
510	CCCN1CCN(C(=O)C2CCCN(c3nnc4ccc(C(F)(F)F)cn34)C2)CC1 (stereo not drawn)
630	CS(=O)(=O)N1CCC(N2C[C@H](Oc3ccccc3)[C@@H]2c2ccncc2)CC1
1090	CCOc1ccc(CCNC(=O)c2snc(C(=O)NCc3ccccc3)c2N)cc1OCC
652	CCN(CC)C(=O)c1ccc2c(c1)N(CC(=O)NCc1ccco1)C(=O)CO2

RP-LC retention time [s]	SMILES
605	CCN1CCN(C(=O)c2cn(-c3cc(N4CCSCC4)ncn3)cn2)CC1
573	CN1CCN(CCCNC(=O)C2c3ccccc3C(=O)N(C)C2c2cccs2)CC1 (stereo not drawn)
985	Cc1cc(C)c(NC(=O)Cn2nc3cc(-c4ccccc4)nc(C)n3c2=O)c(C)c1
990	Cc1ccc(C(=O)N(CCCN)[C@@H](c2nc3cc(Cl)ccc3c(=O)n2Cc2ccccc2)C(C)C)cc1
839	Cc1ccc2[nH]cc(CCN3CC(C(=O)N4CCN(c5ccccc5)CC4)CC3=O)c2c1 (stereo not drawn)
1260	Cc1ccc(-c2ncc3c(=O)n(Cc4ccc(F)cc4)c(=O)n(C)c3n2)cc1
859	CCc1ccc(NS(=O)(=O)c2cc3c(s2)CCN(C(=O)C2CCC2)C3)cc1
787	Cc1cc(C)cc(C(=O)N2CCC3(CC2)NC(=O)c2ccc(F)cc2N3C)c1
912	CCN1C(=O)c2ccccc2Oc2ccc(C(=O)NCc3ccccc3)cc21
993	CCn1c(=O)c(N2CCC(C(=O)NCCc3c[nH]c4ccc(Cl)cc34)CC2)nc2cccnc21
985	CCOC(=O)CC(=O)CSc1ncnc2c1cnn2-c1ccc(F)cc1
857	COC(=O)c1cc(OCC(=O)Nc2ccccc2F)c2cc(F)ccc2n1
1060	COc1cc(OC)cc(-c2nnc(Cc3nc(-c4ccccc4C)no3)o2)c1
883	CCC(C)NC(=O)c1cn(-c2ccc(-c3nc(C4CC4)no3)cn2)cn1 (stereo not drawn)
609	Cn1nc(CNC(=O)c2n[nH]c(=O)c3ccccc23)c2c1CCN(S(C)(=O)=O)C2
588	O=S(=O)(Cc1ccccc1Cl)NCC1CCN(Cc2ccsc2)CC1
670	COc1ccc(CC(=O)NC2CCN(c3cc(-c4ccc(F)cc4)[nH]n3)C2)cc1OC (stereo not drawn)
964	O=C(O)c1cnc(N2CCSCC2)nc1-c1cccc(Cl)c1
698	Cc1ccc(N2CCN(CC(O)COc3ccccc3)CC2)cc1 (stereo not drawn)
624	CCOc1ccc2c(n1)CCN(C(=O)NCCOC)C2
1040	O=S1(=O)C[C@H](N2CCN(c3cccc(Cl)c3)CC2)[C@@H](S(=O)(=O)c2ccc(F)cc2)C1
879	COc1ccc(-n2nnc(-c3nc(C)c(C(=O)NCc4ccco4)s3)c2C)cc1
